30 compounds from patent US10138212B2, “Aminoquinazoline compounds as A2A antagonist” (Merck Sharp & Dohme Corp., priority 2015, dated 2018) can be followed below.

In one assay the target is human A1 receptor (Homo sapiens (Human), UniProt P30542). The assay can be described thus: A1 competition binding assay using Scintillation Proximity technology; selectivity = A1 binding Ki / A2a binding Ki. Particulars: A1 binding Ki divided by A2a binding Ki. The gist of the method:
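SPA competition using 5 ug membranes from CHO-K1 cells expressing human A1, pretreated with adenosine deaminase. Radioligand was 0.7 nM [3H]DPCPX (final), with compound at 3000–0.15 nM in DPBS + 10 mM MgCl2. Incubation was 1 h at room temperature. Non-specific binding was defined with 1 uM DPCPX, and Ki was derived as for A2a.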

For the next assay, the target named is human A2a receptor (Homo sapiens (Human), UniProt P29274). Kind of assay: A2a competition binding assay using Scintillation Proximity technology. The gist of the method: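 Membranes (0.25 or 1 μg) from HEK293 expressing the receptor were pretreated with adenosine deaminase and bound to WGA-coated yttrium silicate SPA beads. They were incubated 1 h at room temperature with compound at 3000–0.15 nM and 0.5 nM tritiated pyrazolotriazolopyrimidine ligand in Ca/Mg-free DPBS with 10 mM MgCl2. Ki was derived from […] by Cheng-Prusoff.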
Sequence of human A2a receptor (P29274 whole entry): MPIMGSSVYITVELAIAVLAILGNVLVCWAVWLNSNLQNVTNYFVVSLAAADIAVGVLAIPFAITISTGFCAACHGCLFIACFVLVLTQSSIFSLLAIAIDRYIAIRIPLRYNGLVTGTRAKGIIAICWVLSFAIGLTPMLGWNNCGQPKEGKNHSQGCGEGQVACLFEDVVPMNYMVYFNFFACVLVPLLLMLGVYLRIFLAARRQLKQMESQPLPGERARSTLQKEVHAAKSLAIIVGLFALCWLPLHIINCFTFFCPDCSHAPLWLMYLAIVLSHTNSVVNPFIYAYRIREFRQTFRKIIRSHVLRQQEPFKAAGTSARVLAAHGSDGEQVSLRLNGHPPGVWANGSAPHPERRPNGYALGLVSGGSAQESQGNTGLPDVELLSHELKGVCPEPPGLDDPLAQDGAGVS
(In a scintillation proximity assay essentially only radioactivity close to the scintillant gives light.)

Setting [1] is: 0.25 μg of membranes from HEK293 cells expressing the human A2a receptor.
Where [2] appears, read: * assay run with 1 μg of membranes versus 0.25 μg, HEK293 cells expressing the human A2a receptor.

Sequence of human A1 receptor (P30542 whole entry): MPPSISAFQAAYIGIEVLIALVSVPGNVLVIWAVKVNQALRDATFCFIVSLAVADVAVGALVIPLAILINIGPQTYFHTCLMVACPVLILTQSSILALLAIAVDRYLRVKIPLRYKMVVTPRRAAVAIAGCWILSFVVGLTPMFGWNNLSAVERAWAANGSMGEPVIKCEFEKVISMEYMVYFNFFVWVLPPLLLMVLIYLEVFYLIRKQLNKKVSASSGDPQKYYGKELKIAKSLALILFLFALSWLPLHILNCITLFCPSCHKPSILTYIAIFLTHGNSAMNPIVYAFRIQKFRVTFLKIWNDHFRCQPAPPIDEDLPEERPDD

Usually Ki stands for a measure of affinity in units of concentration, obtained from inhibition or displacement. Take `Nc1nc(C(=O)NCc2cccc3cccnc23)c2cccc(C(F)(F)F)c2n1` [Example 92, 2-amino-N-(8-quinolylmethyl)-8-(trifluoromethyl)quinazoline-4-carboxamide]: the “A2a selectivity (A2a A1 binding selectivity)” value (“A2a selectivity” for short) at human A1 receptor came out at 560. The compound also had a Ki at human A2a receptor (setting [1]) of 2.3 nM.
In the case of `COc1cccc2c(C(=O)NCc3cccc4c3OC(F)(F)O4)nc(N)nc12` [Example 42, 2-amino-N-[(2,2,-difluoro-1,3-benzodioxol-4-yl)methyl]-8-methoxy-quinazoline-4-carboxamide], at human A1 receptor, the “A2a selectivity” value was 39. At human A2a receptor (setting [2]), this compound came in with an inhibitory constant (Ki) of 5.3 nM.
As to `COc1cccc2c(C(=O)NC3CCc4cccnc43)nc(N)nc12` (stereo not drawn) [Example 32, 2-amino-N-(6,7-dihydro-5H-cyclopenta[b]pyridin-7-yl)-8-methoxy-quinazoline-4-carboxamide], the “A2a selectivity” value at human A1 receptor was 370. The same compound returned a Ki on human A2a receptor (setting [1]) of 1.8 nM.
Regarding `COc1cccc2c(C(=O)NCc3cccc(C4CCC4)n3)nc(N)nc12` [Example 6, 2-amino-N-[(6-cyclobutyl-2-pyridyl)methyl]-8-methoxy-quinazoline-4-carboxamide], the “A2a selectivity” value on human A1 receptor was 102. The compound also showed a Ki at human A2a receptor (setting [1]) of 0.2 nM.
The matching figures for `[2H]C([2H])(NC(=O)c1nc(N)nc2c(OC)cccc12)c1cccc(C([2H])([2H])c2cncc(OCCOC)c2)n1` [Example 107, 2-amino-N-[dideuterio-[6-[dideuterio-[5-(2-methoxyethoxy)-3-pyridyl]methyl]-2-pyridyl]methyl]-8-methoxy-quinazoline-4-carboxamide]: 95 and 2 nM.
The matching figures for `COc1cccc2c(C(=O)NCc3ncc(F)cc3F)nc(N)nc12` [Example 29, 2-amino-N-[(3,5-difluoro-2-pyridyl)methyl]-8-methoxy-quinazoline-4-carboxamide]: 118 and 2.9 nM.
The matching figures for `Nc1nc(C(=O)NCc2ccccc2-c2ncccn2)c2cccc(F)c2n1` [Example 64, 2-amino-8-fluoro-N-[(2-pyrimidin-2-ylphenyl)methyl]quinazoline-4-carboxamide]: 235 and 0.9 nM.
With `COc1cccc2c(C(=O)NCc3cccc(C(F)(F)F)n3)nc(N)nc12` [Example 18, 2-amino-8-methoxy-N-[[6-(trifluoromethyl)-2-pyridyl]methyl]quinazoline-4-carboxamide], the “A2a selectivity” value at human A1 receptor is reported as 412. This compound gave a Ki on human A2a receptor (setting [1]) of 0.4 nM.
The matching figures for `COc1cccc2c(C(=O)NCc3ncc(C)cc3C)nc(N)nc12` [Example 28, 2-amino-N-[(3,5-dimethyl-2-pyridyl)methyl]-8-methoxy-quinazoline-4-carboxamide]: 117 and 1.5 nM.
The matching figures for `COc1cccc2c(C(=O)NCc3nc(C(C)(C)O)ccc3C)nc(N)nc12` [Example 2, 2-amino-N-[[6-(1-hydroxy-1-methyl-ethyl)-3-methyl-2-pyridyl]methyl]-8-methoxy-quinazoline-4-carboxamide]: 193 and 0.6 nM.
The corresponding values for `COc1cccc2c(C(=O)N[C@H]3CCCc4cccnc43)nc(N)nc12` [Example 35, 2-amino-8-methoxy-N-[(8S)-5,6,7,8-tetrahydroquinolin-8-yl]quinazoline-4-carboxamide] are 48 and 180 nM.
For `COC(=O)c1ccccc1CNC(=O)c1nc(N)nc2c(F)cccc12` [Example 74, methyl 2-[[(2-amino-8-fluoro-quinazoline-4-carbonyl)amino]methyl]benzoate], the “A2a selectivity” value on human A1 receptor turned out to be 18. Also, the affinity at human A2a receptor (setting [2]) corresponds to a Ki of 2.5 nM.
`Nc1nc(C(=O)NCC2CCN(c3ncc(F)cn3)CC2)c2cccc(F)c2n1` [Example 86, 2-amino-8-fluoro-N-[[1-(5-fluoropyrimidin-2-yl)-4-piperidyl]methyl]quinazoline-4-carboxamide]: at human A1 receptor, the “A2a selectivity” value is listed as 141. This compound gave an inhibitory constant (Ki) on human A2a receptor (setting [1]) of 8 nM.
`Nc1nc(C(=O)NCc2cccc(Cc3ccc(F)c(F)c3)n2)c2cccc(F)c2n1` [Example 102, 2-amino-N-[[6-[(3,4-difluorophenyl)methyl]-2-pyridyl]methyl]-8-fluoro-quinazoline-4-carboxamide]: the “A2a selectivity” value on human A1 receptor came out at 33. Moreover, the inhibitory constant (Ki) at human A2a receptor (setting [1]) was found to be 1.2 nM.
On to `[2H]C([2H])(NC(=O)c1nc(N)nc2c(OC)cccc12)c1cccc(C([2H])([2H])c2cccc(OCCOC)c2)n1` [Example 106, 2-amino-N-[dideuterio-[6-[dideuterio-[3-(2-methoxyethoxy)phenyl]methyl]-2-pyridyl]methyl]-8-methoxy-quinazoline-4-carboxamide], for which the “A2a selectivity” value on human A1 receptor is given as 70. On human A2a receptor (setting [2]), this compound came in with a Ki of 1.9 nM.
In the case of `COc1ccc(C)c(CNC(=O)c2nc(N)nc3c(F)cccc23)n1` [Example 77, 2-amino-8-fluoro-N-[(6-methoxy-3-methyl-2-pyridyl)methyl]quinazoline-4-carboxamide], the “A2a selectivity” value on human A1 receptor amounted to 62. The same compound came in with a Ki on human A2a receptor (setting [1]) of 0.8 nM.
With `N#Cc1cccc2c(C(=O)NCc3cccc4cccnc34)nc(N)nc12` [Example 100, 2-amino-8-cyano-N-(8-quinolylmethyl)quinazoline-4-carboxamide], the “A2a selectivity” value at human A1 receptor is given as 163. The compound also showed an inhibition constant Ki on human A2a receptor (setting [1]) of 2.1 nM.
The matching figures for `COc1cccc2c(C(=O)NCc3cccc(C(C)(O)C(F)(F)F)n3)nc(N)nc12` (stereo not drawn) [Example 3, 2-amino-8-methoxy-N-[[6-(2,2,2-trifluoro-1-hydroxy-1-methyl-ethyl)-2-pyridyl]methyl]quinazoline-4-carboxamide]: 600 and 0.5 nM.
Take `N#Cc1ccc(OCc2cccc(CNC(=O)c3nc(N)nc4c(F)cccc34)n2)cc1` [Example 47, 2-amino-N-[[6-[(4-cyanophenoxy)methyl]-2-pyridyl]methyl]-8-fluoro-quinazoline-4-carboxamide]: the “A2a selectivity” value on human A1 receptor was determined as 36. On human A2a receptor (setting [2]), this compound showed a Ki of 3.8 nM.
As to `COc1cccc2c(C(=O)NCc3cccc(CSc4nc5ccccc5[nH]4)n3)nc(N)nc12` [Example 56, 2-amino-N-[[6-(1H-benzimidazol-2-ylsulfanylmethyl)-2-pyridyl]methyl]-8-methoxy-quinazoline-4-carboxamide], at human A1 receptor, the “A2a selectivity” value came out at 111. On human A2a receptor (setting [1]), this compound came in with an inhibitory constant (Ki) of 6.3 nM.
The corresponding values for `CC(C)Oc1cccc(CNC(=O)c2nc(N)nc3c(F)cccc23)n1` [Example 78, 2-amino-8-fluoro-N-[(6-isoppropoxy-2-pyridyl)methyl]quinazoline-4-carboxamide] are 75 and 1 nM.
The corresponding values for `COc1cccc2c(C(=O)NCc3cccc(CO)n3)nc(N)nc12` [Example 14, 2-amino-N-[[6-(hydroxymethyl)-2-pyridyl]methyl]-8-methoxy-quinazoline-4-carboxamide] are 273 and 4.6 nM.
The corresponding values for `Cc1ccc(F)c(CNC(=O)c2nc(N)nc3c(-c4ncco4)cccc23)n1` [Example 98, 2-amino-N-[(3-fluoro-6-methyl-2-pyridyl)methyl]-8-oxazol-2-yl-quinazoline-4-carboxamide] are 133 and 1.7 nM.
On to `CC(C)c1nc(CNC(=O)c2nc(N)nc3c(F)cccc23)cs1` [Example 82, 2-amino-8-fluoro-N-[(2-isopropylthiazol-4-yl)methyl]quinazoline-4-carboxamide], for which, at human A1 receptor, the “A2a selectivity” value was 56. For the same compound, on human A2a receptor (setting [1]), the affinity corresponds to a Ki of 0.6 nM.
In the case of `COc1cccc2c(C(=O)NC3(c4ccccn4)CC3)nc(N)nc12` [Example 40, 2-amino-8-methoxy-N-[1-(2-pyridyl)cyclopropyl]quinazoline-4-carboxamide], the “A2a selectivity” value at human A1 receptor came to 3. The compound further showed a Ki on human A2a receptor (setting [1]) of 929 nM.
The matching figures for `Cc1cccc(CNC(=O)c2nc(N)nc3c(Cl)cc(Cl)cc23)n1` [Example 93, 2-amino-6,8-dichloro-N-[(6-methyl-2-pyridyl)methyl]quinazoline-4-carboxamide]: 55 and 6.5 nM.
Take `COc1cccc2c(C(=O)NCc3cccc(COc4cccc(F)c4)n3)nc(N)nc12` [Example 54, 2-amino-N-[[6-[(3-fluorophenxoy)methyl]-2-pyridyl]methyl]-8-methoxy-quinazoline-4-carboxamide]: on human A1 receptor, the “A2a selectivity” value is 49. Moreover, the affinity on human A2a receptor (setting [2]), expressed as Ki, was 2.1 nM.
Take `COc1cccc2c(C(=O)NCc3cccc(Cc4ccccc4)n3)nc(N)nc12` [Example 103, 2-amino-N-((6-benzylpyridin-2-yl)methyl)-8-methoxyquinazoline-4-carboxamide]: the “A2a selectivity” value at human A1 receptor stood at 42. The same compound displayed a Ki at human A2a receptor (setting [2]) of 2.5 nM.
As for `Nc1nc(C(=O)NCc2ncccc2-c2ncccn2)c2cccc(F)c2n1` [Example 67, 2-amino-8-fluoro-N-[(3-pyrimidin-2-yl-2-pyridyl)methyl]quinazoline-4-carboxamide], the “A2a selectivity” value at human A1 receptor came to 297. Moreover, the inhibitory constant (Ki) at human A2a receptor (setting [1]) amounted to 4 nM.
The matching figures for `COc1cccc2c(C(=O)N[C@@H]3CCc4ccccc43)nc(N)nc12` [Example 33, 2-amino-N-[(1R)-indan-1-yl]-8-methoxy-quinazoline-4-carboxamide]: 60 and 5.3 nM.
